Measured values from patent US20100210597A1, “C21-Deoxy Ansamycin Derivatives as Antitumor Agents” (priority 2007, published 2010).
In brackets after ≈: the same amount, converted by molar mass. Where two headings read alike, the source gives them in different places.

What was measured:
Caco-2 cells = test: In vitro Caco-2 assay for cell permeability; format: in vitro ADME; settings: 10 uM, 2 hour incubation
Method: (§1) Caco-2 cells (ATCC Cat. # HTB-37) were grown on fibrillar collagen-coated, microporous, polycarbonate membranes in 24-well BioCaot™ insert plates. Following 5-day growth in Eagle's minimum essential medium supplemented with 10% FBS, the cells were exposed to BioCoat Enterocyte Differentiation Medium (BD, Cat. # 05496) for 2 days to induce enterocytic differentiation. Prior to dosing, the transepithelial electric resistance (TEER) of the Caco-2 cells in each well was measured to ensure the quality of the monolayers.
(§2) The stock solutions of test compounds were prepared at 3 mM in DMSO. Dosing solutions were prepared in the permeability assay buffer at 10 μm. The permeability assay buffer was Hank's balanced salt solution containing 10 mM HEPES at a pH of 7.4±0.2.
(§3) The Caco-2 cells were dosed with the test compounds on either apical side (for A-to-B permeation) or basolateral side (for B-to-A permeation) and incubated at 37° C. with 5% CO2 and 90% relative humidity. The testing for each compound was performed in duplicate. After 2 hour incubation, a 20-μL sample was taken from each of dosing solutions and both donor and receiver compartments. To ensure the validity of the Caco-2 assay, propranolol and vinblastine were used as a high- and a low- to medium-permeability positive control, respectively. Vinblastine also served as a P-gp substrate, tested in conjunction with a P-gp inhibitor, verapamil.
(§4) To quantify test compounds by LC/MS/MS, a related geldanamycin-like compound, 17-methoxyethylamino geldanamycin (Schnur et al., 1995), was used as the internal standard. The calculation of permeability of each compound involved only the concentration ratio of the same test compound, the concentration ratio was expressed in the peak area ratio of the test compound to the internal standard. The peak area ratio of each compound was derived by LC-MS/MS.
(§5) The apparent permeability coefficient Papp was calculated as below: […]
(§6) dCr: cumulative concentration in the receiver compartment in M. dt: duration of the assay (i.e., 7200 seconds). Vr: volume of the receiver compartment in cm^3. A: area of the cell monolayer (0.31 cm^2 for 24-well BioCoat™ plate). C0: concentration of the dosing solution in M.
(§7) The in vitro permeability of 20 and the parent 17 were assayed using caco-2 cells, as described in the general methods. All compounds were analysed at a concentration of 10 uM.

[1] = In vitro Caco-2 assay for cell permeability; format: in vitro ADME; settings: human, Caco-2, pH 7.4, 10 uM, 2 hour incubation
Method: as §1, §2, §3, §4, §5, §6, §7

[2] = Water solubility assay, thermodynamic measurement; format: physicochemical; settings: 5% glucose, 6 hours, room temperature
Method: Thermodynamic Measurements: • The appropriate amounts of compound to make solutions of the compounds at 2, 5, 10 and or 20 mM were mixed with the appropriate amounts of 5% glucose and with DMSO in brown glass vials and shaken at room temperature on an IKA® vibrax VXR shaker. After 6 hours the resulting suspensions/solutions were centrifuged for 20 min at 13200 rpm. • Aliquots of the supernatant fluid were then analysed by an Agilent 1100 HPLC coupled to a Bruker Daltonics Esquire3000 electrospray mass spectrometer (for details see specific examples herein). Chromatography was achieved over a Phenomenex Hyperclone column, BDS C18 3u (150×4.6 mm), with a linear gradient of acetonitrile:water (40:60 to 100) over 11 min at 1 mL/min. UV absorbance was monitored at λ=258 and 280 nm. • All analyses were performed in triplicate and the solubilities of individual compounds calculated by comparing their solubility in 5% glucose with an assumed solubility of 100% in DMSO.
Solubility in 2% DMSO in PBS at each time point was determined by comparing total peak areas for each chromatogram with mean total peak area for chromatograms produced from the corresponding 6 hour DMSO solutions. (Mean total peak area in DMSO solutions was assumed to be equivalent to a 0.5 mM solution). The solubility of compound 17 was measured by a thermodynamic assay as described in the general methods.

[3] = In vivo pharmacokinetic assay in mice; parameters: species or system mouse; settings: female CD-1 mice
Method: The test compound was prepared directly in endotoxin free water. A single dose of 10 mg/kg p.o. or 3 mg/kg i.v. was administered to groups of female CD1 mice (3 mice for each compound per time point). Dose volumes were 10 mL/kg for both oral and intravenous administration. At 4 minutes and 0.25, 0.5, 1, 2, 4, 8, 24 hours groups were sacrificed and plasma was collected from each mouse for further analysis. For oral dosing, a single dose of Test Article was administered via oral gavage to the mice. For intravenous dosing, a single dose of Test article was administered intravenously to mice via the tail veins.
The concentration of the relevant compounds in the plasma samples was determined by HPLC with MS detection.
• Mass spectrometer: API 3200 Q Trap triple quadruple mass spectrometer • Liquid chromatography: Agilent 1200/PAL HTC Autosampler • Ionization Mode: Electrospray (may be changed depending on the TA) • Monitoring: Multiple Reaction Monitoring • LC chromatography BetaBastic-8, 50×2.1 mm, 5 μm (may separation: be changed depending on the TA)
Based on the peak area ratios of test article to an internal standard, 17-Methoxyethylamino Geldanamycin (Schnur et al., 1995), concentrations of an unknown sample were obtained by a calibration curve.
Test plasma sample (0.05 ml), analyte free mouse whole serum (0.05 ml), internal standard solution (0.1 ml of 10 mg/mL 17-Methoxyethylamino geldanamycin (Schnur et al., 1995) dissolved in methanol) and acetonitrile (0.5 ml) were pipetted into a 2-mL polypropylene tube and the contents of the tubes were mixed for a minimum of 5 minutes (Vibrax mixer). The tubes were then centrifuged in a microfuge for a minimum of 2 minutes at 12,000 rpm. 0.1 ml of the solvent layer was transferred into a 2-mL polypropylene tube containing 1 mL acid diluent (0.1% formic acid). The tubes were then mixed for a minimum of 5 minutes (Vibrax mixer) and then centrifuged at approximately 3500 rpm for 5 minutes. The extracts were transferred to auto-sampler vials and placed in the auto sampler tray which was set at ambient temperature. The auto-sampler was programmed to inject a 0.005 ml aliquot of each extract onto the analytical column.
In vivo confirmation of the cleavage of 20 to the parent molecule, 17, was carried out as described in the general methods.
Female CD-1 mice were given single doses of 20, either intravenously at 3 mg/kg, or orally at 10 mg/kg. Plasma samples were then collected at 8 time points (0.067, 0.25, 0.5, 1, 2, 4, 8 and 24 h postdose) over a 24-h period. The amounts of 20 and 17 in the samples were then analysed. […] After iv administration, 20 was only detected up to 0.25 hours after dosing, whilst 17 was detected up to 4 hours after dosing.

Hsp90 = settings: shown in WO2007/074347 (there compound 14); cited from earlier work

## CO[C@H]1C[C@H](C)Cc2cc(O)cc(c2)NC(=O)/C(C)=C/CC[C@H](C)[C@@H](OC(N)=O)/C(C)=C/[C@H](C)[C@H]1O [Compound 17, 4,5-dihydro-11-O-demethyl-15-demethoxy-18,21-didehydro-21-deoxomacbecin]
Caco-2 cells
  Efflux Limited: Yes (Papp (B → A)/Papp (A → B) ≧ 3, and Papp (B → A) ≧ 1.0 × 10^-6 cm/s)
[1]; read-out: Efflux ratio Papp(B → A)/Papp(A → B)
  efflux ratio at 2 h, 10 uM: 6.8
[1]; read-out: Permeability Apical to Basolateral Papp(A → B) Mean
  Papp A→B at 2 h, 10 uM: 0.44 ×10⁻⁶ cm/s
[1]; read-out: Permeability Apical to Basolateral Papp(A → B) Rep. 1
  Papp A→B at 2 h, 10 uM: 0.39 ×10⁻⁶ cm/s
[1]; read-out: Permeability Apical to Basolateral Papp(A → B) Rep. 2
  Papp A→B at 2 h, 10 uM: 0.49 ×10⁻⁶ cm/s
[1]; read-out: Permeability Basolateral to Apical Papp(B → A) Mean
  Papp B→A at 2 h, 10 uM: 2.95 ×10⁻⁶ cm/s
[1]; read-out: Permeability Basolateral to Apical Papp(B → A) Rep. 1
  Papp B→A at 2 h, 10 uM: 1.7 ×10⁻⁶ cm/s
[1]; read-out: Permeability Basolateral to Apical Papp(B → A) Rep. 2
  Papp B→A at 2 h, 10 uM: 4.21 ×10⁻⁶ cm/s
[2]
  solubility: 716 µM (≈ 360 µg/mL)
[3]; single intravenous dose of 20 at 3 mg/kg
  detected in plasma up to (time after dosing): up to 4 hours
[3]; single oral dose of 20 at 10 mg/kg
  detected in plasma up to (time after dosing): up to 8 hours
Hsp90
  Hsp90 inhibition: potent Hsp90 inhibitor
